Measured values as given in patent EP4438596A1, “DIAMINOPYRIMIDINE DERIVATIVES AS HDAC AND DHFR DUAL-TARGETING INHIBITORS AND USE THEREOF IN PREVENTING AND TREATING MALARIA” (Université de Lille, priority 2023, dated 2024).
Read-outs that look alike come from different tables or passages of the source.

Experiments:
[1] = tested on: P. falciparum 3D7-infected erythrocytes; test: Plasmodium falciparum growth inhibition assay (SYBR Green I, flow cytometry), drug-sensitive strain; format: cell-based; settings: Plasmodium falciparum, 3D7, Erythrocyte, 48 h incubation
Experimental: (§1) Plates were incubated under standard P. falciparum culture conditions for 48 h. […] Fixed parasitized red blood cells (RBC) were stored at 4 °C in the dark until flow cytometry analysis. Parasite growth was assessed by flow cytometry on a BD FACS Cantoll (BD Biosciences) or a Attune™ NxT Flow Cytometer (Invitrogen). Cell doublets were excluded from the analysis using a forward scatter (FSC)-width versus FSC-area dot plot. Infected and uninfected erythrocytes were gated on the basis of their FSC and side scatter (SSC) signals. Fluorescence analysis (Green fluorescence FITC) was performed using BD FACSDiva software (BD Biosciences) on a total of 200,000 acquired events. […] Fluorescence of non-infected RBC was adjusted to plot between 10° and 10^2. Results are expressed as the percentage of growth inhibition.
(§2) All IC50 values were calculated using log-linear interpolation (www.antimalarial-icestimator.net), with mean values (± SD) determined over at least two independent experiments.

[2] = tested on: HEK293 cells; test: Cytotoxicity on HEK293 cells (Alamar Blue); format: cell-based, Human; settings: ratio of the minimum inhibitory concentration of HEK293 cells (50 µM) to the IC50 of Pf3D7
Experimental: Cells were seeded out at 1.5 × 10^3 cells per well in a 96-well cell culture plate (TPP, Switzerland).
After 24 h, Alamar Blue reagent (Invitrogen, CA) was added according to the manufacturer's instructions and incubated again for 21 h before samples were analyzed.

[3] = tested on: multidrug-resistant P. falciparum line Dd2; test: Plasmodium falciparum growth inhibition assay (SYBR Green I, flow cytometry), multidrug-resistant line; format: cell-based; settings: line resistant to CQ, PYR and mefloquine, mean ± SD
Experimental: as §1, §2

[4] = tested on: P. berghei ANKA parasites; test: Peters 4-day suppressive test, oral efficacy in P. berghei-infected mice; format: in vivo, Plasmodium berghei; settings: for activity in vivo against Plasmodium berghei: Experiment 2 (Fig. 2), 10mg/kg orally twice a day on days 0,1,2,3; for activity in vivo against Plasmodium berghei / number of mice showing blood parasites / parasitemia (mean ± sd): Balb/C mice; for parasites in treated mice, follow-up: until the end of the experiments; for parasite clearance after oral administration: 10 mg/kg
Experimental: Compounds powder was dissolved in DMSO and sonicated for 10 min. Appropriate volume of 50%W/v HPβCD was added dropwise under gentle swirling. After 10 min sonication, DPBS was added dropwise under gentle swirling and the mixture was sonicated again for 10 min. After checking the pH (5.5 - 7), the solution was filtered (0.22µm) and conserved at room temperature for max 2 days. Final concentration of compounds was 2.5 mg/mL, 1 mg/mL or 0.1 mg/mL for mice treatment with 25 mg/kg, 10 mg/kg or 1mg/kg doses.
10 weeks-old Balb/C male mice were purchased from Janvier Labs.
P. berghei ANKA parasites stabilates conserved in liquid nitrogen were thawed and injected intraperitoneally (ip) into 2-3 mice (10^6 infected red blood cells (RBC) / mouse). When parasitemia reached 3-5%, mice were bled and groups of six BALB/c male mice were infected with 10^6 P. berghei ANKA parasites (day 0), and treated per os (p.o.) twice a day on days 0, 1, 2 and 3. […] On day 4 post infection (p.i.), the peripheral blood parasitemia of all mice was evaluated via microscopic examination of Giemsa-stained thin blood smears. Parasitemia was then followed for two weeks.

[5] = mean ± SD, n ≥ 2, read-out: Pf3D7 IC50
[6] = Plasmodium falciparum, DD2, 48 h, n ≥ 2, read-out: PfDd2 IC50
[7] = Experiment 3, 1 mg/kg p.o. twice a day on days 0-3, day 4 p.i.
[8] = Experiment 3, 1 mg/kg p.o. twice a day on days 0-3, day 5 p.i.
[9] = Experiment 3, 1 mg/kg p.o. twice a day on days 0-3, day 6 p.i.
[10] = Experiment 3, 1 mg/kg p.o. twice a day on days 0-3, day 7 p.i.
[11] = Experiment 3, 1 mg/kg p.o. twice a day on days 0-3, day 8 p.i.
[12] = Experiment 3, 1 mg/kg p.o. twice a day on days 0-3, day 10 p.i.
[13] = Experiments 1 and 2, 10 mg/kg p.o. twice a day on days 0-3, day 4 p.i.
[14] = Experiments 1 and 2, 10 mg/kg p.o. twice a day on days 0-3

| SMILES | IC50 [1, 5] | Selectivity Index HEK293 / Pf3D7 [2] | IC50 [3, 6] | activity in vivo against Plasmodium berghei [4] | number of mice showing blood parasites [4, 7] | number of mice showing blood parasites [4, 8] | parasitemia (mean ± sd) [4, 8] | number of mice showing blood parasites [4, 9] | parasitemia (mean ± sd) [4, 9] | number of mice showing blood parasites [4, 10] | parasitemia (mean ± sd) [4, 10] | number of mice showing blood parasites [4, 11] | parasitemia (mean ± sd) [4, 11] | number of mice showing blood parasites [4, 12] | parasitemia (mean ± sd) [4, 12] | parasites in treated mice [4, 13] | parasites in treated mice, follow-up [4, 14] | parasite clearance after oral administration [4] | other results |
| --- | --- | --- | --- | --- | --- | --- | --- | --- | --- | --- | --- | --- | --- | --- | --- | --- | --- | --- | --- |
| CCc1nc(N)nc(N)c1OCCOc1ccccc1CCC(=O)NO.Cl [2·HCl, 3-(2-[2-(2,4-Diamino-6-ethylpyrimidin-5-yloxy)ethoxy]phenyl)-N-hydroxypropanamide hydrochloride] | 11.4 ± 7.9 nM | > 4.4E+06 | – | – | – | – | – | – | – | – | – | – | – | – | – | – | – | – | – |
| CCc1nc(N)nc(N)c1OCCCOc1cccc(C(=O)NO)c1.Cl [8·HCl, 3-[3-(2,4-Diamino-6-ethylpyrimidin-5-yloxy)propoxy]-N-hydroxybenzamide hydrochloride] | 0.845 ± 0.108 nM | – | 138 nM | active in vivo | 0/6 | 0/6 | 0% | 2/6 | 0,08 ± 0,13% | 2/6 | 0,32 ± 0,49% | 3/6 | 1,37 ± 2,07% | 4/6 | 2,41 ± 2,84% | undetectable | remained undetectable | achieved parasite clearance | IC50 ([3]; 48 h, n ≥ 2, listed as 8, hydrochloride, read-out: PfDd2 IC50): 138 ± 25.4 nM; ranking of activity against P. berghei infection ([4]; Experiment 3, 1 mg/kg p.o. twice a day on days 0-3): most active; parasites in treated mice [4, 7]: undetectable; parasitemia (mean ± sd) [4, 7]: 0% |
| CCc1nc(N)nc(N)c1OCCCOc1ccccc1/C=C/C(=O)NO.Cl [13·HCl, (E)-3-{2-[3-(2,4-Diamino-6-ethylpyrimidin-5-yloxy)propoxy]phenyl}-N-hydroxyacrylamide hydrochloride] | 0.081 ± 0.043 nM | – | 11.1 ± 7.2 nM | active in vivo | 2/6 | 3/6 | 0,55 ± 0,83% | 4/6 | 2,05 ± 2,37% | 5/6 | 2,39 ± 2,22% | 5/6 | 3,94 ± 3,06% | 5/5 | 6,02 ± 2,66% | undetectable | remained undetectable | achieved parasite clearance | IC50 ([1]; read-out: IC50 (Pf3D7)): < 0.1 nM; parasitemia (mean ± sd) ([4]; Experiment 3, 1 mg/kg p.o. twice a day on days 0-3, day 4 p.i., hydrochloride, 1 mg/kg): 0,12 ± 0,18%; parasitemia (mean ± sd) ([4]; Experiment 3, 1 mg/kg p.o. twice a day on days 0-3, day 4 p.i., listed as 13, hydrochloride, 1 mg/kg): 0.12% |
| CCc1nc(N)nc(N)c1OCCCOc1cccc(C(=O)NOCc2ccccc2)c1 [Compound 12, N-(Benzyloxy)-3-[3-(2,4-diamino-6-ethylpyrimidin-5-yloxy)propoxy]benzamide] | 4.84 ± 1.05 nM | > 1.0E+07 | – | – | – | – | – | – | – | – | – | – | – | – | – | – | – | – | – |
